“And” between values parts separate entries of the source, which are not always exact repeats. Identical values can stand only once. Values belong to the molecule of their own block, whether it stands above or below them.
Assays:
[1] = Trolox equivalent absorbance capacity (TEAC) assay; details: Trolox equivalents; absorbance 734 nm, 25 °C
Method: 3.4.3. Trolox Equivalent Absorbance Capacity (TEAC) Assay
The total antioxidant activity of test samples were measured using previously described methods.

[2] = Copper-initiated prooxidant activity in the ORAC assay (Cu2+ without H2O2); details: Cu2+ (CuSO4) 18 µM without H2O2, 37 °C; prooxidant (arbitrary) units
Method: (§1) 3.4.2. Automated Oxygen Radicals Absorbance Capacity (ORAC) Assay
(§2) ORAC was measured according to the method described by Prior [30], with some modifications. […] The copper-initiated prooxidant activity was calculated using [(AreaBlank − AreaSample)/AreaBlank] × 100 and expressed as prooxidant units; one unit equals the prooxidant activity that reduces the area under the fluorescein decay curve by 1% in the ORAC assay.

[3] = molecular target: T1, elastase (from porcine pancreas) (Sus scrofa, UniProt P00772); assay: Elastase inhibition assay; assay type: biochemical; details: substrate SANA, 100 μg/mL optimum concentration; for IC50: read-out: Inhibitory Activitis (IC50) Elastase (converted)
T1 construct: purchased Sigma-Aldrich, Inc. (St. Louis, MO, USA); host or cells: porcine pancreas
Method: (§3) Organic solvents, methanol, acetonitrile (HPLC grade), ethanol, ethyl acetate, dichloromethane and hexane were supplied by Merck (Cape Town, South Africa). TLC was conducted on normal-phase (Merck) Silica gel 60 PF254 pre-coated aluminum plates. Column chromatography was performed using silica gel 60 H (0.040–0.063 mm particle size, Merck) and Sephadex LH-20 (Sigma-Aldrich, Cape Town, South Africa). NMR spectra were recorded on an Avance 400 MHz NMR spectrometer (Bruker, Rheinstetten, Germany) in deuterated chloroform and acetone, using the solvent signals as internal reference. HRMS analysis was conducted on an Ultimate 3000 LC (Dionex Sunnyvale, CA, USA) coupled to a Bruker QTOF with electrospray ionization (ESI) interface working in the positive ion mode.
3.4.6. Elastase Inhibition Assay
Inhibition of elastase by the test samples was assayed using N-succyl-(Ala)3-nitroanilide (SANA) as the substrate, monitoring the release of p-nitroanilide by the method described by Chompo et al. with little adjustment. The inhibitory activity determined the intensity of colour released during cleavage of SANA by the action of elastase. Briefly, 1 mM SANA was prepared in 0.1 M Tris-HCl buffer pH 8.0 and 200 µL of this solution was added to the 20 µL of sample solution in a 96-Well plate. The mixtures were vortexed and preincubated for 10 min at 25 °C and then 20 µL of elastase from porcine pancrease (0.03 units/mL) was added. The mixtures were further incubated for 10 min and the absorbance was measured at 410 nm. Methanol was used as control, while oleanolic acid used as a positive control.

[4] = Ferric-ion reducing antioxidant power assay (FRAP); details: ascorbic acid equivalents; absorbance 593 nm
Method: 3.4.1. Ferric-Ion Reducing Antioxidant Power Assay (FRAP)
Working FRAP reagent was prepared in accordance to the methods described previously. […] L-Ascorbic acid was used as a standard and the results were expressed as μM ascorbic acid equivalents per […] dry weight (μM AAE/g DW) of the test samples.

[5] = Automated ORAC assay, hydroxyl radical (H2O2-Cu2+; ORAC OH.); details: hydroxyl radical from H2O2 0.3% - Cu2+ 18 µM, 37 °C; Trolox equivalents
Method: as §1, §2

[6] = test system: Fe (II)-induced microsomal lipid peroxidation (rat liver microsomes); assay: Inhibition of Fe (II)-induced microsomal lipid peroxidation; assay type: biochemical; details: TBARS, purified compounds screened at 26.750 μg/mL, extract (HT) at 100 μg/mL
Excerpt: 3.4.4. Inhibition of Fe (II)-Induced Microsomal Lipid Peroxidation Assay
A modified assay described by Snijman et al. with little modifications.

[7] = Automated ORAC assay, peroxyl radical (AAPH; ORAC ROO.); details: peroxyl radical from AAPH, 37 °C; Trolox equivalents
Method: as §1, §2

[8] = molecular target: tyrosinase (from mushroom) (Agaricus bisporus, UniProt C7FF04); assay: Tyrosinase enzyme assay; assay type: biochemical; details: substrate L-Tyrosine; screened at effective concentration of 50 μg/mL
Method: as §3
Samples were dissolved in DMSO to a stock solution of 1 mg/mL, and further dilutions were then done with 50 mM sodium phosphate buffer (pH 6.5) for all working solutions. […] Incubation commenced for 30 min at room temperature and the enzyme activity was determined by measuring the absorbance at 490 nm.

T1 sequence (P00772 27-266): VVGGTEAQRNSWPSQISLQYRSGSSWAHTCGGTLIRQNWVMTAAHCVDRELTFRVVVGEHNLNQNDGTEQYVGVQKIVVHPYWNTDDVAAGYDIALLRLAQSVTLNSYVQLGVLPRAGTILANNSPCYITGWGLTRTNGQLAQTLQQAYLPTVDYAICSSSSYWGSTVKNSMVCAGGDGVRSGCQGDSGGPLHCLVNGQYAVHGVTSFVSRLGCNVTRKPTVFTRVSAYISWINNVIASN
Sequence of tyrosinase (from mushroom) (C7FF04 1-392): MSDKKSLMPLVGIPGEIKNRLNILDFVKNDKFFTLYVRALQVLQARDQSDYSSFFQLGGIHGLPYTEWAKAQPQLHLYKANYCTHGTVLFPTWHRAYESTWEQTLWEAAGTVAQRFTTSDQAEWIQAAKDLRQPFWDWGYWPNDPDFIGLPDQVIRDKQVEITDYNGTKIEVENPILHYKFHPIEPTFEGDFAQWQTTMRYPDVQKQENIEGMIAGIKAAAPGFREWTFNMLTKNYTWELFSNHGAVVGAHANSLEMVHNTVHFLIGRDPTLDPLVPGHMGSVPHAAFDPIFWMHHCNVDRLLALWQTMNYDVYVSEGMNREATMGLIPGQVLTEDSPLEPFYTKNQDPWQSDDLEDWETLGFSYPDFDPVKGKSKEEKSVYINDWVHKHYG

Molecule: CC(C)=CCc1c(O)cc(O)c2c1O[C@H](c1ccccc1)CC2=O [Compound 5, glabranin]
TEAC [1]: 204.15 ± 2.04 μM TE/g
Automated Oxygen Radical Absorbance Capacity (ORAC μM TE/g) Prooxidant [2]: 2.971 ± 1.10 µM/g
IC50 [3]: > 308 µM
FRAP [4]: 67.79 ± 14.27 μM AAE/g
Automated Oxygen Radical Absorbance Capacity (ORAC μM TE/g) OH. [5]: 2.997 ± 0.36 μM/g × 10^6
Inhibitory Activitis (IC50) Lipid Peroxidation [6]: >26.750 µg/mL
Automated Oxygen Radical Absorbance Capacity (ORAC μM TE/g) ROO. [7]: 0.856 ± 17.35 μM/g × 10^3

Molecule: CC(C)=CCOc1cc(O)c(C(=O)/C=C/c2ccccc2)c2c1C=CC(C)(C)O2 [Compound 1, 2'-hydroxy-5',6'-(2,2-dimethylpyrano)-4'-(O-prenyl)-chalcone]
Automated Oxygen Radical Absorbance Capacity (ORAC μM TE/g) Prooxidant [2]: 2.036 ± 2.98 µM/g
IC50 [3]: > 256 µM
Automated Oxygen Radical Absorbance Capacity (ORAC μM TE/g) OH. [5]: 2.998 ± 1.67 μM/g × 10^6
Inhibitory Activitis (IC50) Lipid Peroxidation [6]: >26.750 µg/mL
Automated Oxygen Radical Absorbance Capacity (ORAC μM TE/g) ROO. [7]: 2.833 ± 3.88 μM/g × 10^3

Molecule: isoxanthohumol [Compound 2]
TEAC [1]: 4170.66 ± 6.72 μM TE/g
Automated Oxygen Radical Absorbance Capacity (ORAC μM TE/g) Prooxidant [2]: 3.601 ± 2.23 µM/g
Inhibitory Activitis (IC50) Elastase [3]: >100 µg/mL
Inhibitory Activitis (IC50) Tyrosinase [8]: >50 µg/mL
FRAP [4]: 619.91 ± 1.97 μM AAE/g
Automated Oxygen Radical Absorbance Capacity (ORAC μM TE/g) OH. [5]: 2.910 ± 6.00 μM/g × 10^6
Inhibitory Activitis (IC50) Lipid Peroxidation [6]: >26.750 µg/mL
Automated Oxygen Radical Absorbance Capacity (ORAC μM TE/g) ROO. [7]: 3.113 ± 17.59 μM/g × 10^3

Molecule: CC(C)=CCc1c(O)cc2c(c1O)C(=O)C[C@@H](c1ccccc1)O2 [Compound 4, isoglabranin]
TEAC [1]: 43.17 ± 6.26 μM TE/g
Automated Oxygen Radical Absorbance Capacity (ORAC μM TE/g) Prooxidant [2]: 3.947 ± 0.29 µM/g
IC50 [3]: > 308 µM
FRAP [4]: 7.052 ± 3.76 μM AAE/g
Automated Oxygen Radical Absorbance Capacity (ORAC μM TE/g) OH. [5]: 2.918 ± 4.13 μM/g × 10^6
Inhibitory Activitis (IC50) Lipid Peroxidation [6]: >26.750 µg/mL
Automated Oxygen Radical Absorbance Capacity (ORAC μM TE/g) ROO. [7]: 1.063 ± 33.50 μM/g × 10^3

Molecule: CC(C)=CCc1c(O)cc(O)c(C(=O)/C=C/c2ccccc2)c1O [Compound 3, 2',4',6'-trihydroxy-3'-prenylchalcone]
TEAC [1]: 4529.01 ± 2.44 μM TE/g
Automated Oxygen Radical Absorbance Capacity (ORAC μM TE/g) Prooxidant [2]: 4.704 ± 0.27 µM/g
IC50 [3]: > 308 µM
FRAP [4]: 817.94 ± 4.26 μM AAE/g
Automated Oxygen Radical Absorbance Capacity (ORAC μM TE/g) OH. [5]: 3.771 ± 3.02 μM/g × 10^6
Inhibitory Activitis (IC50) Lipid Peroxidation [6]: 21.276 µg/mL
Automated Oxygen Radical Absorbance Capacity (ORAC μM TE/g) ROO. [7]: 5.025 ± 6.16 μM/g × 10^3

Now from value to molecule, other results behind:

IC50 [3]: > 335 µM
Inhibitory Activitis (IC50) Lipid Peroxidation [6]: 10.720 µg/mL
Molecule: COc1cc2oc(-c3ccccc3)cc(=O)c2c(O)c1OC [Compound 10, mosloflavone]
TEAC [1]: 699.66 ± 2.28 μM TE/g
Automated Oxygen Radical Absorbance Capacity (ORAC μM TE/g) Prooxidant [2]: 6.482 ± 1.55 µM/g
FRAP [4]: 544.60 ± 6.98 μM AAE/g
Automated Oxygen Radical Absorbance Capacity (ORAC μM TE/g) OH. [5]: 2.909 ± 8.41 μM/g × 10^6
Automated Oxygen Radical Absorbance Capacity (ORAC μM TE/g) ROO. [7]: 2.403 ± 2.50 μM/g × 10^3

IC50 [3]: 274 µM
Inhibitory Activitis (IC50) Lipid Peroxidation [6]: 6.449 µg/mL
Molecule: COc1ccc(-c2oc3cc(O)cc(O)c3c(=O)c2O)cc1O [Compound 8, 4'-methoxyquercetin]
TEAC [1]: 1009.01 ± 1.98 μM TE/g
Automated Oxygen Radical Absorbance Capacity (ORAC μM TE/g) Prooxidant [2]: 8.963 ± 2.79 µM/g
FRAP [4]: 3584.17 ± 0.54 μM AAE/g
Automated Oxygen Radical Absorbance Capacity (ORAC μM TE/g) OH. [5]: 6.779 ± 3.40 μM/g × 10^6
Automated Oxygen Radical Absorbance Capacity (ORAC μM TE/g) ROO. [7]: 12.545 ± 5.07 μM/g × 10^3

IC50 [3]: > 333 µM
Inhibitory Activitis (IC50) Lipid Peroxidation [6]: 10.520 µg/mL
Molecule: COc1ccc(-c2oc3cc(O)cc(O)c3c(=O)c2O)cc1 [Compound 9, 4'-methoxykaempferol]
TEAC [1]: 261.30 ± 4.02 μM TE/g
Automated Oxygen Radical Absorbance Capacity (ORAC μM TE/g) Prooxidant [2]: 3.790 ± 1.15 µM/g
FRAP [4]: 191.47 ± 1.39 μM AAE/g
Automated Oxygen Radical Absorbance Capacity (ORAC μM TE/g) OH. [5]: 3.675 ± 1.40 μM/g × 10^6
Automated Oxygen Radical Absorbance Capacity (ORAC μM TE/g) ROO. [7]: 10.491 ± 0.97 μM/g × 10^3

Inhibitory Activitis (IC50) Lipid Peroxidation [6]: 0.929 µg/mL
Molecule: O=C(O[C@@H]1Cc2c(O)cc(O)cc2O[C@@H]1c1cc(O)c(O)c(O)c1)c1cc(O)c(O)c(O)c1 [EGCG, epigallocatechin gallate, reference compound]
TEAC [1]: 11545.4 ± 17.28 μM TE/g
Automated Oxygen Radical Absorbance Capacity (ORAC μM TE/g) Prooxidant [2]: 6.483 ± 1.19 µM/g
FRAP [4]: 3326.45 ± 5.76 μM AAE/g
Automated Oxygen Radical Absorbance Capacity (ORAC μM TE/g) OH. [5]: 3.911 ± 4.65 μM/g × 10^6
Automated Oxygen Radical Absorbance Capacity (ORAC μM TE/g) ROO. [7]: 14.970 ± 5.53 μM/g × 10^3

Inhibitory Activitis (IC50) Lipid Peroxidation [6]: 2.931 µg/mL
Molecule: O=c1c(O)c(-c2ccc(O)c(O)c2)oc2cc(O)cc(O)c12 [Compound 7, quercetin]
TEAC [1]: 1361.70 ± 1.98 μM TE/g
Automated Oxygen Radical Absorbance Capacity (ORAC μM TE/g) Prooxidant [2]: 4.361 ± 0.78 µM/g
FRAP [4]: 4816 ± 7.42 μM AAE/g and 4816.31 ± 7.42 μM AAE/g
Automated Oxygen Radical Absorbance Capacity (ORAC μM TE/g) OH. [5]: 7.265 ± 0.71 μM/g × 10^6
Automated Oxygen Radical Absorbance Capacity (ORAC μM TE/g) ROO. [7]: 17.836 ± 2.90 μM/g × 10^3

Source: publication PMC6272301, “Inhibition of Oxidative Stress and Skin Aging-Related Enzymes by Prenylated Chalcones and Other Flavonoids from Helichrysum teretifolium” (Molecules, 2015)
